Converted amounts (≈) assume the structure as drawn. Where a name gives a salt, the structure may show the parent alone. Read-outs that look alike come from different tables or passages of the source.
Legend:
Type in all cases: cell-based
[1] = test system: clinically isolated Staphylococcus epidermidis; experiment: In vitro antibacterial activity against clinical isolates, Experiment 2; conditions: Staphylococcus epidermidis; for MIC50: 50% of strains, read-out: MIC50
Procedure: The above solutions were then diluted with sterilized distilled water to prepare a standard solution with a concentration of the test compound: 1000 μg/ml each.
For the preculture of each microorganism, there was used as the medium a sensitivity test broth (manufactured by Nissui Seiyaku K. K., Japan), and for the measurement of MIC, there was used a sensitivity test agar medium (manufactured by Nissui Seiyaku K. K.).
The clinically isolates used above were isolated from Nov. 1988 to Jun. 1989 and were obtained from Research Section, Tokyo Clinical Research Center.

[2] = test system: Proteus mirabilis IFO 3849; experiment: MIC, Experiment 1; conditions: IFO3849, P. mirabilis IFO 3849, Gram -, read-out: Min. inhib. concentr. (MIC)
Procedure: (§1) The compounds of the present invention (B, E, G, H, M, N, O, P and Q) were each dissolved in dimethylsulfoxide to prepare a solution of 5000 μg/ml in concentration. The compounds of the present invention (I, J and K) and the known compound (Y) were each dissolved in sterilized distilled water to prepare a solution of 5000 μg/ml in concentration. Each solution was diluted with sterilized distilled water to prepare a standard solution with a concentration of each test compound: 1000 μg/ml. The test was carried out by a method as appointed by Japan Society of Chemotherapy [cf. Chemotherapy, 29, 76-79 (1981), TOKYO].
(§2) As to Streptococcus pneumoniae and Streptococcus pyogenes, Brain heart infusion broth (manufactured by DIFCO) was used as the medium for the preculture thereof, and a heart infusion agar medium containing 5% defibrinated horse blood (manufactured by Nissui Seiyaku K. K., Japan) was used as the medium for the measurement of minimum inhibitory concentration (MIC). As to other microorganisms, a sensitivity test broth (manufactured by Nissui Seiyaku K. K.) was used as the medium for the preculture thereof, and a sensitivity test agar medium (manufactured by Nissui Seiyaku K. K.) was used as the medium for the measurement of MIC.

[3] = test system: Streptococcus pneumoniae IID 552; experiment: MIC, Experiment 1; conditions: IID552, S. pneumoniae IID 552, Gram +, agar with 5% defibrinated horse blood, read-out: Min. inhib. concentr. (MIC)
Procedure: as §1, §2

[4] = test system: Staphylococcus aureus Terajima (IID 670); experiment: MIC, Experiment 1; conditions: IID670, S. aureus Terajima (IID 670), Gram +, read-out: Min. inhib. concentr. (MIC)
Procedure: as §1, §2

[5] = test system: Staphylococcus aureus IID 803; experiment: MIC, Experiment 1; conditions: IID803, S. aureus IID 803, Gram +, read-out: Min. inhib. concentr. (MIC)
Procedure: as §1, §2

[6] = test system: Pseudomonas aeruginosa NCTC 10490; experiment: MIC, Experiment 1; conditions: NCTC10490, P. aeruginosa NCTC 10490, Gram -, read-out: Min. inhib. concentr. (MIC)
Procedure: as §1, §2

[7] = test system: Staphylococcus aureus FDA 209P JC-1; experiment: MIC, Experiment 1; conditions: FDA209P, S. aureus FDA 209P JC-1, Gram +, read-out: Min. inhib. concentr. (MIC)
Procedure: as §1, §2

[8] = test system: Klebsiella pneumoniae PCI-602; experiment: MIC, Experiment 1; conditions: PCI602, K. pneumoniae PCI-602, Gram -, read-out: Min. inhib. concentr. (MIC)
Procedure: as §1, §2

[9] = test system: Streptococcus pyogenes Cook; experiment: MIC, Experiment 1; conditions: S. pyogenes Cook, Gram +, agar with 5% defibrinated horse blood, read-out: Min. inhib. concentr. (MIC)
Procedure: as §1, §2

Bacillus cereus IAM 1029 = experiment: MIC, Experiment 1; conditions: IAM1029, B. cereus IAM 1029, Gram +, read-out: Min. inhib. concentr. (MIC)
Procedure: as §1, §2

[10] = test system: Micrococcus luteus ATCC 9341; experiment: MIC, Experiment 1; conditions: ATCC9341, M. luteus ATCC 9341, Gram +, read-out: Min. inhib. concentr. (MIC)
Procedure: as §1, §2

[11] = test system: Streptococcus pyogenes Su; experiment: MIC, Experiment 1; conditions: S. pyogenes Su, Gram +, agar with 5% defibrinated horse blood, read-out: Min. inhib. concentr. (MIC)
Procedure: as §1, §2

[12] = test system: Staphylococcus aureus MS-353; experiment: MIC, Experiment 1; conditions: MS353, S. aureus MS-353, Gram +, read-out: Min. inhib. concentr. (MIC)
Procedure: as §1, §2

[13] = test system: Acinetobacter calcoaceticus Ac 54; experiment: MIC, Experiment 1; conditions: AC54, A. calcoaceticus Ac 54, Gram -, read-out: Min. inhib. concentr. (MIC)
Procedure: as §1, §2

[14] = test system: Staphylococcus aureus FDA 243; experiment: MIC, Experiment 1; conditions: FDA243, S. aureus FDA 243, Gram +, read-out: Min. inhib. concentr. (MIC)
Procedure: as §1, §2

[15] = test system: Staphylococcus aureus ATCC 9144; experiment: MIC, Experiment 1; conditions: ATCC9144, S. aureus ATCC 9144, Gram +, read-out: Min. inhib. concentr. (MIC)
Procedure: as §1, §2

[16] = test system: Staphylococcus aureus Cowan I (IID 975); experiment: MIC, Experiment 1; conditions: IID975, S. aureus Cowan I (IID 975), Gram +, read-out: Min. inhib. concentr. (MIC)
Procedure: as §1, §2

Enterobacter cloacae 963 = experiment: MIC, Experiment 1; conditions: E. cloacae 963, Gram -, read-out: Min. inhib. concentr. (MIC)
Procedure: as §1, §2

[17] = test system: Streptococcus pneumoniae IID 554; experiment: MIC, Experiment 1; conditions: IID554, S. pneumoniae IID 554, Gram +, agar with 5% defibrinated horse blood, read-out: Min. inhib. concentr. (MIC)
Procedure: as §1, §2

[18] = test system: Streptococcus pyogenes Sv; experiment: MIC, Experiment 1; conditions: S. pyogenes Sv, Gram +, agar with 5% defibrinated horse blood, read-out: Min. inhib. concentr. (MIC)
Procedure: as §1, §2

[19] = test system: Escherichia coli NIHJ JC-2; experiment: MIC, Experiment 1; conditions: NIHJJC2, E. coli NIHJ JC-2, Gram -, read-out: Min. inhib. concentr. (MIC)
Procedure: as §1, §2

[20] = test system: Bacillus subtilis ATCC 6633; experiment: MIC, Experiment 1; conditions: ATCC6633, B. subtilis ATCC 6633, Gram +, read-out: Min. inhib. concentr. (MIC)
Procedure: as §1, §2

[21] = 25 clinical strains S. epidermidis
[22] = 25 clinical strains S. epidermidis, 90% of strains, read-out: MIC90

Compound	MIC [1, 21] [mg/L]	MIC50 [1, 21] [mg/L]	MIC [2] [mg/L]	MIC [3] [mg/L]	MIC [4] [mg/L]	MIC [5] [mg/L]	MIC [6] [mg/L]	MIC [7] [mg/L]	MIC [8] [mg/L]	MIC [9] [mg/L]	MIC (Bacillus cereus IAM 1029) [mg/L]	MIC [10] [mg/L]	MIC [11] [mg/L]	MIC [12] [mg/L]	MIC [13] [mg/L]	MIC [14] [mg/L]	MIC [15] [mg/L]	MIC [16] [mg/L]	MIC (Enterobacter cloacae 963) [mg/L]	MIC [17] [mg/L]	other results
CN1Cc2csc3c(C(=O)O)c(=O)c4cc(F)c(N5CCN6CCOC[C@H]6C5)c1c4n23 [Compound (F), 9,1-(Methylimino)methano-7-fluoro-8-[(6R)-1,8-diaza-4-oxabicyclo[4.4.0]deca-8-yl]-5-oxo-5H-thiazolo[3,2-a]quinoline-4-carboxylic acid]	0.013 to 1.56 (≈ 0.0292 to 3.51 µM)	0.05 (≈ 0.112 µM)	0.78 (≈ 1.75 µM)	0.05 (≈ 0.112 µM)	0.05 (≈ 0.112 µM)	0.013 (≈ 0.0292 µM)	0.78 (≈ 1.75 µM)	0.025 (≈ 0.0562 µM)	0.013 (≈ 0.0292 µM)	0.05 (≈ 0.112 µM)	0.025 (≈ 0.0562 µM)	0.2 (≈ 0.45 µM)	0.05 (≈ 0.112 µM)	0.025 (≈ 0.0562 µM)	0.013 (≈ 0.0292 µM)	0.013 (≈ 0.0292 µM)	0.025 (≈ 0.0562 µM)	0.025 (≈ 0.0562 µM)	0.78 (≈ 1.75 µM)	0.05 (≈ 0.112 µM)	MIC90 [1]: 0.78 mg/L (≈ 1.75 µM); MIC [18]: 0.05 mg/L (≈ 0.112 µM); MIC [19]: 0.39 mg/L (≈ 0.877 µM); MIC [20]: 0.013 mg/L (≈ 0.0292 µM)
CN1Cc2csc3c(C(=O)O)c(=O)c4cc(F)c(N5CCC(=O)CC5)c1c4n23 [Compound (G), 9,1-(Methylimino)methano-7-fluoro-8-(4-oxopiperidino)-5-oxo-5H-thiazolo[3,2-a]quinoline-4-carboxylic acid]	0.006 to 0.2 (≈ 0.0149 to 0.498 µM)	0.013 (≈ 0.0324 µM)	0.2 (≈ 0.498 µM)	0.025 (≈ 0.0623 µM)	0.013 (≈ 0.0324 µM)	≤ 0.006	0.39 (≈ 0.972 µM)	0.013 (≈ 0.0324 µM)	≤ 0.006	0.025 (≈ 0.0623 µM)	0.013 (≈ 0.0324 µM)	0.05 (≈ 0.125 µM)	0.013 (≈ 0.0324 µM)	≤ 0.006	≤ 0.006	≤ 0.006	≤ 0.006	≤ 0.006	0.2 (≈ 0.498 µM)	0.025 (≈ 0.0623 µM)	MIC90 [1, 22]: 0.2 mg/L (≈ 0.498 µM); MIC [18]: 0.025 mg/L (≈ 0.0623 µM); MIC [19]: 0.1 mg/L (≈ 0.249 µM); MIC [20]: ≤ 0.006 mg/L
CN1Cc2csc3c(C(=O)O)c(=O)c4cc(F)c(N5CCC(N(C)C)CC5)c1c4n23 [Compound (H), 9,1-(methylimino)methano-7-fluoro-8-(4-dimethylaminopiperidino)-5-oxo-5H-thiazolo[3,2-a]quinoline-4-carboxylic acid]	0.05 to 3.13 (≈ 0.116 to 7.27 µM)	0.05 (≈ 0.116 µM)	0.78 (≈ 1.81 µM)	0.05 (≈ 0.116 µM)	0.05 (≈ 0.116 µM)	0.1 (≈ 0.232 µM)	0.78 (≈ 1.81 µM)	0.1 (≈ 0.232 µM)	0.025 (≈ 0.0581 µM)	0.05 (≈ 0.116 µM)	0.05 (≈ 0.116 µM)	0.39 (≈ 0.906 µM)	0.05 (≈ 0.116 µM)	0.1 (≈ 0.232 µM)	0.1 (≈ 0.232 µM)	0.05 (≈ 0.116 µM)	0.05 (≈ 0.116 µM)	0.05 (≈ 0.116 µM)	0.39 (≈ 0.906 µM)	0.05 (≈ 0.116 µM)	MIC90 [1, 22]: 3.13 mg/L (≈ 7.27 µM); MIC [18]: 0.05 mg/L (≈ 0.116 µM); MIC [19]: 0.2 mg/L (≈ 0.465 µM); MIC [20]: 0.05 mg/L (≈ 0.116 µM)
CN1Cc2csc3c(C(=O)O)c(=O)c4cc(F)c(N5CCN(C)C(CO)C5)c1c4n23 (stereo not drawn) [Compound (I), 9,1-(Methylimino)methano-7-fluoro-8-(3-hydroxymethyl-4-methyl-1-piperazinyl)-5-oxo-5H-thiazolo-[3,2-a]quinoline-4-carboxylic acid hydrochloride]	0.05 to 3.13	0.1	0.78	0.1	0.2	0.2	0.78	0.2	0.025	0.05	0.2	0.39	0.05	0.39	0.1	0.1	0.1	0.2	0.2	0.05	MIC90 [1, 22]: 3.13 mg/L; MIC [18]: 0.1 mg/L; MIC [19]: 0.2 mg/L; MIC [20]: 0.1 mg/L

Reference: patent US5191079A, “Quinolinecarboxylic acid derivatives” (priority 1990, dated 1993)
